# Test results published in article PMC7289991, “Population Pharmacokinetics and Limited Sampling Strategy for Therapeutic Drug Monitoring of Polymyxin B in Chinese Patients With Multidrug-Resistant Gram-Negative Bacterial Infections” (Frontiers in Pharmacology, 2020).
# Positions of bridges follow the written chain, without caps; N, C: chain ends. Non-standard residues stand in square brackets, D forms with d. Residues, ends and D or L forms follow the SMILES beside them. *: point of attachment. X1 = CC[C@H](C)CCCCC(=O)*; Dab = NCC[C@H](N)C(=O)O
# What was measured:
# [1] = Population pharmacokinetic analysis of polymyxin B in Chinese patients (two-compartment model, Phoenix NLME); format: in vivo, human
# Experimental: Patients who were ≥ 18 years of age, received intravenous polymyxin B (sulfate; polymyxin B injection, Shanghai First Biochemical Pharmaceutical Co., Ltd., China) for ≥ 72 hours, and were documented MDR Gram-negative bacterial infections were included. Patients with renal replacement therapy were excluded. Demographic characteristics (age, sex, and body weight), polymyxin B therapy, and laboratory data before polymyxin B TDM were collected from electronic medical records, including alanine aminotransferase (ALT), aspartate aminotransferase (AST), glutamyl transpeptidase (GGT), alkaline phosphatase (ALP), urea nitrogen, serum creatinine (Scr), serum uric acid, serum proteins, serum albumin, total bilirubin (TBIL), direct bilirubin (DBIL), and creatinine clearance (CrCL). CrCL was calculated using the Cockcroft-Gault equation with body weight ([Janmahasatian et al., 2005]).
# According to the Chinese package insert, the maintenance dose of polymyxin B was 50 to 100 million units ([…]) twice daily. The loading dose was 100 to 150 million units in clinical practice. The recommended infusion time was one hour but could be lengthened as needed. Polymyxin B treatment including dose, infusion time, and duration of therapy depended on the medical teams.
# (§1) Blood samples were obtained after 3 days of therapy. On day 4, one blood sample (2 ml, C0h) was collected immediately at pre-dose, and five to seven blood samples (mainly C0.5h, C1h, C1.5h, C2h, C4h, C6h, and C8h) were collected at pre-next dose into EDTA tubes for each patient. To calculate AUC0–12h, C0h was regarded as C12h for those who hid not obtained C0h. All samples were centrifuged at 3,500×g for 10 min. The supernatant was collected and stored at −80°C until analysis.
# Plasma concentrations of polymyxin B were determined using liquid chromatography-tandem mass spectrometry (LC-MS/MS) in the hospital laboratory. The method was previously described by our group ([Wang et al., 2020]). […] The upper limit of quantification was extended to 20 µg/ml for polymyxin B1 and 5.0 µg/ml for polymyxin B2 after four-fold dilution. For precision and accuracy, the intra- and inter-day imprecision of polymyxin B1 and B2 was less than 13.93%, and the inaccuracy ranged from −10.87 to 11.13%. Since polymyxin B1 and B2 had similar structures, molecular weight, pharmacological activities, and pharmacokinetic characteristics, the plasma concentration of polymyxin B was summed to derive the total polymyxin B1 and B2 concentrations ([Tam et al., 2011]; [Manchandani et al., 2016a]).
# Based on a previously published study ([Avedissian et al., 2019]), the PK parameters were determined by one- and two-compartmental models performed using Phoenix® NLME software (v7.0, Pharsight, Mountain View, CA, USA). Initial PK parameters were estimated by the Naive-pooled model. PK models were estimated by the first-order conditional
# where Pi is the PK parameters of the i^th patient, θ is the population PK pharmacokinetic parameters, and ηi is a normally distributed random variable with a mean of 0 and a variance of ω^2. Intra-individual variability (residual error) is described using additive (Cobs = Cpred + ϵ), proportional [Cobs = Cpred × (1+ ϵ)] or mixed (additive + proportional) models, where Cobs and Cpred are the observed and predicted concentrations, and ϵ is an error variable with a mean of 0 and a variance of σ^2. Model assessment criteria included precision of parameter estimates (standard error), goodness-of-fit plots, and likelihood ratio test (−2LL). For the one-compartment model, basic PK parameters were the volume of central compartment distribution (V) and central compartment clearance (Cl). For the two-compartment model, there were two additional parameters as the volume of peripheral compartment distribution (V2) and inter-compartmental clearance (Q). […]
# [2] = cited from earlier work
# From the text: To date, few studies have been conducted on population PK of polymyxin B ([Kwa et al., 2008]; [Sandri et al., 2013]; [Kubin et al., 2018]; [Manchandani et al., 2018]; [Miglis et al., 2018]). To our best knowledge, this study included the largest samples and most covariates from acutely-ill patients, aimed at evaluating the population PK of polymyxin B and identifying potential factors influencing the PK variability. The result indicated a two-compartment model adequately described population PK of polymyxin B in Chinese patients. Although there were studies performed using the one-compartment ... || The impact of clinical variables on population PK models of polymyxin B was always inconsistent, especially the influence of body weight and CrCL on polymyxin B clearance. […] With a low correlation coefficient (Supplementary Figure 1), this study found CrCL was a statistical covariate of polymyxin B clearance (Equ. 6), which was in agr ...
# [3] = Observed AUC0-12h at steady state (linear-up-log-down method); format: in vivo; details: human, 46 patients, steady state (day 4), intravenous, plasma, LC-MS/MS, mean ± spread
# Experimental: as §1
# Plasma concentrations of polymyxin B were determined using liquid chromatography-tandem mass spectrometry (LC-MS/MS) in the hospital laboratory. The method was previously described by our group ([Wang et al., 2020]). […] The upper limit of quantification was extended to 20 µg/ml for polymyxin B1 and 5.0 µg/ml for polymyxin B2 after four-fold dilution. For precision and accuracy, the intra- and inter-day imprecision of polymyxin B1 and B2 was less than 13.93%, and the inaccuracy ranged from −10.87 to 11.13%. […]
# The AUC0-12h of polymyxin B was calculated by the linear-up-log-down method. […] The observed and predicted AUC0-12h were analyzed using the Pearson correlation coefficient (r). […] The determination coefficient (r^2) evaluated the regression level of the equation. […]
# [4] = two-compartment population PK, 46 patients, intravenous, steady state
smiles,measurement,setting,value
"CC[C@H](C)CCCCC(=O)N[C@@H](CCN)C(=O)N[C@H](C(=O)N[C@@H](CCN)C(=O)N[C@H]1CCNC(=O)[C@H]([C@@H](C)O)NC(=O)[C@H](CCN)NC(=O)[C@H](CCN)NC(=O)[C@H](CC(C)C)NC(=O)[C@@H](Cc2ccccc2)NC(=O)[C@H](CCN)NC1=O)[C@@H](C)O [polymyxin B, Polymyxin B] (X1-[Dab]T[Dab][Dab][Dab][dF]L[Dab][Dab]T; lactam 4-C)","dCldCrCL, bootstrap median","[1]; 1,000 bootstrap samples",0.357
same,"tvCl, bootstrap median","[1]; 1,000 bootstrap samples",1.771 L/h
same,"tvQ, bootstrap median","[1]; 1,000 bootstrap samples",14.427 L/h
same,"tvV2, bootstrap median","[1]; 1,000 bootstrap samples",12.073 L
same,"tvV, bootstrap median","[1]; 1,000 bootstrap samples",5.960 L
same,"tvV, typical value of volume of central compartment distribution (V), final model estimate","[1]; two-compartment population PK, 46 adult patients, 331 plasma samples, intravenous, steady state (day 4), LC-MS/MS, sum of polymyxin B1 and B2",6.218 L
same,"tvQ, typical value of inter-compartmental clearance (Q, Cl2), final model estimate",[1]; [4],13.518 L/h
same,"tvV2, typical value of volume of peripheral compartment distribution (V2), final model estimate",[1]; [4],11.922 L
same,"clearance value, renal insufficient group","[2]; CrCL < 80 ml/min, P = 0.06 vs normal function group, ref Thamlikitkul et al. (2017)",2.0 L/h
same,"clearance value, normal function group","[2]; CrCL ≥ 80 ml/min, ref Thamlikitkul et al. (2017)",2.5 L/h
same,polymyxin B CL reported previously (range),"[2]; earlier population PK studies, ref not given",1.87 to 2.5 L/h
same,V estimate,[2]; ref Sandri et al. (2013),6.35 L
same,AUC(0-t),[3],43600 ± 27700 ng·h/mL
